Test results: PMC6627609, “Targeting Quorum Sensing: High-Throughput Screening to Identify Novel LsrK Inhibitors” (International Journal of Molecular Sciences, 2019)
Structures can show the parent of a compound that is named as a salt.

Target: LsrK (Salmonella typhimurium, UniProt Q8ZKQ6)
Experiment: biochemical
Type: biochemical, S. typhimurium
Conditions: for Inhibition (%): 50 µM

Chain of LsrK (Q8ZKQ6 whole entry): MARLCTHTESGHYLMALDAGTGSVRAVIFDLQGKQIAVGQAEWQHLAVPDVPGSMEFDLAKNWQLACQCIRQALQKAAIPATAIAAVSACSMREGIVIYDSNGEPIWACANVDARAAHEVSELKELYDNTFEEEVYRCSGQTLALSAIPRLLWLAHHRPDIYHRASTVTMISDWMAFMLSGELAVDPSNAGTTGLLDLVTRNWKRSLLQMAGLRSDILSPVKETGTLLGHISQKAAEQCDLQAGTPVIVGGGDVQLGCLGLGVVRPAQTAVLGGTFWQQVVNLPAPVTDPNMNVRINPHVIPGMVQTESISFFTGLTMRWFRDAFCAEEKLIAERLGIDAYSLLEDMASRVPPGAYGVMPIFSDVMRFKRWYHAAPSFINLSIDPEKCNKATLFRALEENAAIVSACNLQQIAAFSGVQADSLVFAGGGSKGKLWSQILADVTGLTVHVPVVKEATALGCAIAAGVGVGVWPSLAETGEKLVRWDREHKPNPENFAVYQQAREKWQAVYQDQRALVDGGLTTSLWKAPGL

Row | Compound | inhibition at 50 µM [%] | further results
1 | COc1cc(O)c(C)c(O)c1 [2.6-DIHYDROXY-4-METHOXYTOLUENE] | – | Inhibition (%): 1
2 | CC1=C(/C=C/C(C)=C/C=C/C(C)=C/C=C/C=C(C)/C=C/C=C(C)/C=C/C(=O)[C@]2(C)C[C@@H](O)CC2(C)C)C(C)(C)C[C@H](O)C1 [CAPSANTHIN] | 1 | –
3 | BERBAMINE HYDROCHLORIDE | – | Inhibition (%): 1
4 | CC1COc2c(N3CCN(C)CC3)c(F)cc3c(=O)c(C(=O)O)cn1c23 (centres unmarked) [OFLOXACIN] | 4 | –
5 | CC(=O)Oc1c2c(c(CC=C(C)C)c3c1C(=O)C1=C[C@@H]4CC5C(C)(C)OC(C/C=C(\C)C(=O)O)(C4=O)[C@@]15O3)OC(C)(CCC=C(C)C)C=C2 (some centres unmarked) [ACETYL I[…]] | 141 | IC50: 4 µM
6 | CCN(CC)CCOC(=O)C(c1ccccc1)c1ccccc1 [ADIPHENINE HYDROCHLORIDE] | 0 | –
7 | CC(=O)Oc1ccccc1C(=O)O [ASPIRIN] | 0 | –
8 | CC1(C)S[C@@H]2[C@H](NC(=O)Cc3ccccc3)C(=O)N2[C@H]1C(=O)O [PENICILLIN G POTASSIUM] | 4 | –
9 | O=C(/C=C/C(=O)Oc1ccccc1C(=O)O)Oc1ccccc1C(=O)O [[…]] | 2 | –
10 | NC(=O)c1ncn([C@@H]2O[C@H](CO)[C@@H](O)[C@H]2O)c1N [ACADESINE] | 0 | –
11 | OC[C@H]1O[C@H]([S-])[C@H](O)[C@@H](O)[C@@H]1O.[Au+] [AUROTHIOGLUCOSE] | – | Inhibition (%): 104
12 | O=P([O-])(O)C(O)(Cc1cccnc1)P(=O)(O)O.[Na+] [RISEDRONATE SODIUM HYDRATE] | – | Inhibition (%): 2
13 | CO[C@H]1C[C@@H]2CC[C@@H](C)[C@@](O)(O2)C(=O)C(=O)N2CCCC[C@H]2C(=O)O[C@H]([C@H](C)C[C@@H]2CC[C@@H](O)[C@H](OC)C2)CC(=O)[C@H](C)/C=C(\C)[C@@H](O)[C@@H](OC)C(=O)[C@H](C)C[C@H](C)/C=C/C=C/C=C/1C [SIROLIMUS] | 4 | –
14 | Cc1ccnc(NS(=O)(=O)c2ccc(N)cc2)n1 [SULFAMERAZINE] | 2 | –
15 | O=c1c(-c2ccccc2)coc2cc(O)cc(O)c12 [5.7-DIHYDROXYISOFLAVONE] | – | Inhibition (%): 106
16 | CC12CCC3C(CC3(C)C)C(C)(CCC1=O)O2 (centres unmarked) [3.7-EPOXYCARYOPHYLLAN-6-ONE] | – | Inhibition (%): 1
17 | NC[C@H]1O[C@H](O[C@H]2[C@H](O)[C@@H](O[C@H]3O[C@H](CO)[C@@H](O)[C@H](N)[C@H]3O)[C@H](N)C[C@@H]2N)[C@H](N)C[C@@H]1O [TOBRAMYCIN] | 0 | –
18 | NC[C@@H]1CC[C@@H](N)[C@@H](O[C@H]2[C@H](O)[C@@H](O[C@H]3O[C@H](CO)[C@@H](O)[C@H](N)[C@H]3O)[C@H](N)C[C@@H]2N)O1 [DIBEKACIN] | 0 | –
19 | c1ccc2c(c1)[nH]c1cnccc12 [NORHARMAN] | 1 | –
20 | COC(=O)[C@]1(C)CC[C@]2(C)CC[C@]3(C)C4=CC=C5C(=CC(=O)C(O)=C5C)[C@]4(C)CC[C@@]3(C)[C@@H]2C1 [PRISTIMERIN] | 7 | –
21 | c1ccc2c(c1)CN1CCCC1=N2 [DESOXYPEGANINE HYDROCHLORIDE] | 0 | –
22 | Nc1ccc(S(=O)(=O)Nc2cnc3ccccc3n2)cc1 [SULFAQUINOXALINE SODIUM] | 1 | –
23 | COC(=O)C[C@H]1C(C)(C)C2(O)OC34CC2C(=O)[C@]1(C)C3CC[C@]1(C)C4=CC(=O)O[C@H]1c1ccoc1 (stereo partly drawn) [8beta-HYDROXYCARAPIN. 3.8-HEMIACETAL] | – | Inhibition (%): 0

Row | Compound | inhibition at 50 µM [%] | further results
24 | CC(=O)Oc1cc(C(C)C)c(OCCN(C)C)cc1C.Cl [MOXISYLYTE HYDROCHORIDE] | – | Inhibition (%): 2
25 | C[N+]1(C)[C@@H]2CC[C@H]1C[C@@H](OC(=O)C(O)c1ccccc1)C2 (some centres unmarked) [HOMATROPINE METHYLBROMIDE] | 0 | –
26 | COc1cc(/C=C/C(=O)CC(=O)/C=C/c2ccc(O)c(OC)c2)ccc1O [CURCUMIN] | 1 | –
27 | Oc1cc(O)c2c(c1)O[C@H](c1ccc(O)c(O)c1)[C@H](O)C2 [EPICATECHIN] | 2 | –
28 | COCCCOc1ccnc(C[S+]([O-])c2nc3ccccc3[nH]2)c1C (centres unmarked) [RABEPRAZOLE SODIUM] | 0 | –
29 | CCOC(=O)[C@H](CCc1ccccc1)N[C@H]1CCc2ccccc2N(CC(=O)O)C1=O [BENAZEPRIL HYDROCHLORIDE] | 0 | –
30 | O=C(C1CCCCC1)N1CC(=O)N2CCc3ccccc3C2C1 (centres unmarked) [PRAZIQUANTEL] | 0 | –
31 | Cl.Cl.NCCNCCNCCN [TRIENTINE HYDROCHLORIDE] | – | Inhibition (%): 13
32 | CC(=O)Oc1cccc(C)c1 [meta-CRESYL ACETATE] | – | Inhibition (%): 1
33 | Cc1c(C(=O)O)c(O)cc2c1C(=O)c1c(O)c([C@@H]3O[C@H](CO)[C@@H](O)[C@H](O)[C@H]3O)c(O)c(O)c1C2=O [CARMINIC ACID] | 6 | –
34 | CC(Cc1cccc(C(F)(F)F)c1)NCCOC(=O)c1ccccc1 (centres unmarked) [BENFLUOREX HYDROCHLORIDE] | 4 | –
35 | Cc1cc(NS(=O)(=O)c2ccc(N)cc2)no1 [SULFAMETHOXAZOLE] | 1 | –
36 | COC(=O)c1c(C)c2c(c(C)c1O)OC(=O)c1c(C)c(Cl)c(O)c(Cl)c1O2 [LEOIDIN] | 83 | –
37 | Nc1nc(F)nc2c1ncn2[C@@H]1O[C@H](COP(=O)(O)O)[C@@H](O)[C@@H]1O [FLUDARABINE PHOSPHATE] | 0 | –
38 | Cc1cc(=O)oc2c(O)c(O)ccc12 [4-METHYLDAPHNETIN] | 1 | –
39 | CCC(=O)OCC(=O)[C@@]1(OC(=O)CC)[C@@H](C)C[C@H]2[C@@H]3CCC4=CC(=O)C=C[C@]4(C)[C@@]3(F)[C@@H](O)C[C@@]21C [BETAMETHASONE 17.21-DIPROPIONATE] | – | Inhibition (%): 0
40 | CC[C@@]1(O)C(=O)OCc2c1cc1n(c2=O)Cc2cc3ccccc3nc2-1 [CAMPTOTHECIN] | 1 | –
41 | C[C@@H]1CC[C@@]2(OC1)O[C@H]1C[C@H]3[C@@H]4CC[C@H]5C[C@@H](O)CC[C@]5(C)C4=CC[C@]3(C)[C@H]1[C@@H]2C [3beta-HYDROXYISOALLOSPIROST-9(11)-ENE] | – | Inhibition (%): 2
42 | C=C[C@@](C)(O)CC[C@H]1C(=C)C[C@H](OC(C)=O)[C@H]2C(C)(C)CCC[C@]12C [LARIXOL ACETATE] | – | Inhibition (%): 3
43 | COc1cc(O)c(C(C)=O)c(O)c1 [4-O-METHYLPHLORACETOPHENONE] | – | Inhibition (%): 2
44 | Cl.Cl.O=C1c2c(O)ccc(O)c2C(=O)c2c(NCCNCCO)ccc(NCCNCCO)c21 [MITOXANTHRONE HYDROCHLORIDE] | – | Inhibition (%): 2
45 | C[C@@H]1C/C=C/C=C/C=C/C=C/[C@H](O[C@@H]2O[C@H](C)[C@@H](O)[C@H](N)[C@@H]2O)C[C@@H]2O[C@](O)(C[C@@H](O)C[C@H]3O[C@@H]3/C=C/C(=O)O1)C[C@H](O)[C@H]2C(=O)O [NATAMYCIN] | 12 | –
46 | CC(=O)O[C@H]1C[C@@H](OC(C)=O)C(C)(C)[C@@H]2C[C@@H](OC(C)=O)[C@@]3(C)C4=CC(=O)O[C@@H](c5ccoc5)[C@]4(C)CC[C@@H]3[C@@]12C [DEOXYKHIVORIN] | – | Inhibition (%): 1

Row | Compound | inhibition at 50 µM [%] | further results
47 | C=C1C(N)CC2CC1C2(C)C (stereo not drawn) [3-AMINO-beta-PINENE] | 1 | –
48 | C=CC(N)CCC(=O)O (centres unmarked) [VIGABATRIN] | 1 | –
49 | O=c1c(O)c(-c2cc(O)c(O)c(O)c2)oc2cc(O)cc(O)c12 [MYRICETIN] | 14 | –
50 | CC[C@@]1(O)C(=O)OCc2c1cc1n(c2=O)Cc2cc3cc(O)ccc3nc2-1 [10-HYDROXYCAMPTOTHECIN] | 1 | –
51 | NC(=O)c1cccnc1 [NIACINAMIDE] | 1 | –
52 | C[C@@H]1CC[C@@]2(NC1)O[C@H]1C[C@H]3[C@@H]4CC=C5C[C@@H](O)CC[C@]5(C)[C@H]4CC[C@]3(C)[C@H]1[C@@H]2C [SOLASODINE] | 1 | –
53 | COc1ccc(-c2c(O)c3c(OC)c4c(cc3oc2=O)OC(C)(C)C=C4)cc1 [ROBUSTIC ACID] | 111 | –
54 | C=CC1=C(C(=O)O)N2C(=O)[C@@H](NC(=O)/C(=N\O)c3csc(N)n3)[C@H]2SC1 | 17 | –
55 | C=CC(C1=CC(=O)C(OC)=CC1=O)c1ccc(O)cc1 (centres unmarked) [DALBERGIONE. 4-METHOXY-4'-HYDROXY-] | – | Inhibition (%): 90
56 | CC(C)c1nc(N(C)S(C)(=O)=O)nc(-c2ccc(F)cc2)c1/C=C/[C@@H](O)C[C@@H](O)CC(=O)O [ROSUVASTATIN CALCIUM] | 1 | –
57 | CN(C)CCCN1c2ccccc2Sc2ccccc21 [PROMAZINE HYDROCHLORIDE] | 3 | –
58 | Cc1cccc(C)c1NC(=O)c1ccccc1C(=O)O [FTAXILIDE] | 4 | –
59 | O=c1[nH]c(=O)n([C@H]2C[C@H](O)[C@@H](CO)O2)cc1F [FLOXURIDINE] | 0 | –
60 | CO[C@H]1C[C@H](O[C@@H]2/C(C)=C/C[C@@H]3C[C@@H](C[C@]4(CC[C@H](C)[C@@H](C5CCCCC5)O4)O3)OC(=O)[C@@H]3C=C(C)/C(=N/O)[C@H]4OC/C(=C\C=C\[C@@H]2C)[C@]43O)O[C@@H](C)[C@@H]1O [SELAMECTIN] | 0 | –
61 | CC(=O)O[C@H]1C(=O)[C@@]2(C)[C@H]([C@H](OC(=O)c3ccccc3)[C@]3(O)C[C@H](O)C(C)=C1C3(C)C)[C@]1(OC(C)=O)CO[C@@H]1C[C@@H]2O [BACCATIN III] | 9 | –
62 | CO[C@H]1/C=C/O[C@@]2(C)Oc3c(C)c(O)c4c(O)c(c(/C=N/N5CCN(C)CC5)c(O)c4c3C2=O)NC(=O)/C(C)=C\C=C\[C@H](C)[C@H](O)[C@@H](C)[C@@H](O)[C@@H](C)[C@H](OC(C)=O)[C@@H]1C [RIFAMPIN] | 18 | –
63 | CC(=O)OCC(=O)[C@@]12OC(C)(C)O[C@@H]1C[C@H]1[C@@H]3C[C@H](F)C4=CC(=O)C=C[C@]4(C)[C@@]3(F)[C@@H](O)C[C@@]12C [FLUOCINONIDE] | 3 | –
64 | CC(C)CCC[C@@H](C)[C@H]1CC[C@H]2[C@@H]3CC(=O)[C@H]4C[C@@H](O)CC[C@]4(C)[C@H]3CC[C@]12C [5alpha-CHOLESTAN-3beta-OL-6-ONE] | 1 | –
65 | CC[C@H]1OC(=O)[C@H](C)[C@@H](O[C@H]2C[C@@](C)(OC)[C@@H](O)[C@H](C)O2)[C@H](C)[C@@H](O[C@@H]2O[C@H](C)C[C@H](N(C)C)[C@H]2O)[C@](C)(O)C[C@@H](C)C(=O)[C@H](C)[C@@H](O)[C@]1(C)O [ERYTHROMYCIN] | 0 | –
66 | CCOc1ccc(NC(=O)CC(C)O)cc1 (centres unmarked) [BUCETIN] | 0 | –
67 | CCOC(N)=O | 0 | –
